Laboratory results from US20040253190A1, “Breath Freshening and Oral Cleansing Product Using Citral” (priority 2002, published 2004).
≈ marks a conversion by molar mass, not a printed value.

Key:
Assay type in all cases: cell-based
[1] = system: Porphyromonas gingivalis; assay: MBC (Minimum bactericidal concentration), plating on blood agar; settings: P. gingivalis, lowest concentration killing at least 99.9% of initial inoculum, plates 48 hours at 37° C.
Description: (§1) In vitro tests were conducted with a gram positive supragingival plaque bacterium, Streptococcus mutans. In addition, two subgingival plaque bacteria associated with oral malodor were tested, Porphyromonas gingivalis and Fusobacterium nucleatum. The MIC (Minimum Inhibitory Concentrations) study protocol is as follows. Chlorhexidine was used as a positive control and sterile water was used as a negative control. Citral was suspended in 10% methanol with 3.8% Tween 80. […] 96 well microtiter plates were used for this study. Each well contained 5×10^5 colony forming units/ml of bacteria, serially diluted agents and bacterial growth medium. All bacterial cultures were incubated at 37° C. and stationary. Bacterial growth was estimated spectrophotometrically at 660 nm, after 48 hours. The MIC for each test bacteria was defined as the minimum concentration of test compound limiting turbidity to[…]. The MBC (Minimum bactericidal concentrations) were determined using the 96 well microtiter plate serial dilutions as described above for MIC studies. Serial dilution of cultures in wells showing no visible growth were performed and 10 microliters of culture were plated in triplicate on blood agar plates. Viable colonies were scored after incubation of the plates for 48 hours at 37° C. For each test bacterium, the number of CFU/ml were determined in the initial inoculum. The MBC was defined as the lowest concentration of a test compound that killed at least 99.9% of the cells present in the initial inoculum.

[2] = system: Fusobacterium nucleatum; assay: as above; settings: F. nucleatum, lowest concentration killing at least 99.9% of initial inoculum, plates 48 hours at 37° C.
Description: as §1

[3] = system: Porphyromonas gingivalis; assay: MIC (Minimum Inhibitory Concentration) study, 96 well microtiter plate; settings: P. gingivalis, 5×10^5 CFU/ml, 37° C., turbidity at 660 nm after 48 hours
Description: (§2) In vitro tests were conducted with a gram positive supragingival plaque bacterium, Streptococcus mutans. In addition, two subgingival plaque bacteria associated with oral malodor were tested, Porphyromonas gingivalis and Fusobacterium nucleatum. The MIC (Minimum Inhibitory Concentrations) study protocol is as follows. Chlorhexidine was used as a positive control and sterile water was used as a negative control. Citral was suspended in 10% methanol with 3.8% Tween 80. […] 96 well microtiter plates were used for this study. Each well contained 5×10^5 colony forming units/ml of bacteria, serially diluted agents and bacterial growth medium. All bacterial cultures were incubated at 37° C. and stationary. Bacterial growth was estimated spectrophotometrically at 660 nm, after 48 hours. The MIC for each test bacteria was defined as the minimum concentration of test compound limiting turbidity to<absorbance at 660 nm.

[4] = system: Fusobacterium nucleatum; assay: as above; settings: F. nucleatum, 5×10^5 CFU/ml, 37° C., turbidity at 660 nm after 48 hours
Description: as §2

[5] = system: Streptococcus mutans; assay: as above; settings: S. mutans, 5×10^5 CFU/ml, 37° C., turbidity at 660 nm after 48 hours
Description: as §2

Row | Structure (SMILES) | MBC [1] | MBC [2] | MIC [3] | MIC [4] | MIC [5]
1 | [H]/N=C(\N/C(=N/[H])NCCCCCCNC(=N)NC(=N)Nc1ccc(Cl)cc1)Nc1ccc(Cl)cc1 [Cholorhexidine, Chlorhexidine, reference compound] | 1.25 µg/mL (≈ 2.47 µM) | 1.25 µg/mL (≈ 2.47 µM) | 1.25 µg/mL (≈ 2.47 µM) | 1.25 µg/mL (≈ 2.47 µM) | 
2 | CC(C)=CCCC(C)=CC=O [citral] | 125 µg/mL (≈ 821 µM) | 31.3 µg/mL (≈ 206 µM) | 62.5 µg/mL (≈ 411 µM) | 15.6 µg/mL (≈ 102 µM) | 500 µg/mL (≈ 3280 µM)
